What was measured:
[1] = system: human corpus cavernosum tissue; assay: Measurement of cGMP in human corpus cavernosum tissues (ELISA); assay type: cell-based; details: 5 min incubation after 30 μM Zaprinast and 100 μM IBMX, n=5
Method: Human corpus cavernosum specimens were obtained from impotent men at the time of penile prosthesis insertion. Tissues were maintained at 4-6° C. in M-400 solution (composition per 100 ml: mannitol, 4.19 g; KH2PO4, 0.205 g; K2HPO4.3H2O, 0.97 g; KCl, 0.112 g; NaHCO3, 0.084 g) until used. Corpus cavernosum tissues were typically used between 2 and 16 hours from extraction. Measurement of cyclic GMP in corpus cavernosal tissues was carried out as follows. Corpus cavernosal tissue strips (3×3×7 mm) were immersed in a 8 ml organ chamber containing physiological salt solution, maintained at 37° C. and aerated with 5% CO2/95% air, pH 7.4. […] Tissues were incubated for another 5 minutes then immediately frozen in liquid nitrogen and stored at -80° C. until extraction for cyclic nucleotide assay. Tissues were extracted by homogenization in 6% trichloroacetic acid followed by ether (H2O-saturated) extraction and lyophilization. cGMP levels were determined by ELISA using a kit from Cayman Chemical (Ann Arbor, Mich.). Protein concentration in the corpus cavernosum tissue was determined using the Bio-Rad Protein Assay Kit microtiter plate assay procedure (Bio-Rad, Hercules, Calif.) with bovine serum albumin as the standard. The measured concentrations of cGMP in picomoles were normalized based on milligrams of protein to provide a valid comparison between each tissue sample. […]

[2] = system: human corpus cavernosum tissue; assay: Concentration response relaxation studies of human corpus cavernosum tissue strips contracted with phenylephrine; assay type: cell-based; details: compound alone, strips contracted with 0.5 μM phenylephrine, relaxation as % of 0.1 mM papaverine, n=5, read-out: EC50 (concentration required to obtain the half-maximum response) for relaxation
Method: Human corpus cavernosum specimens were obtained from impotent men at the time of penile prosthesis insertion. Tissues were maintained at 4-6° C. in M-400 solution (composition per 100 ml: mannitol, 4.19 g; KH2PO4, 0.205 g; K2HPO4.3H2O, 0.97 g; KCl, 0.112 g; NaHCO3, 0.084 g) until used. Corpus cavernosum tissues were typically used between 2 and 16 hours from extraction.
Concentration response relaxation studies of human corpus cavernosum tissues were conducted as follows. Corpus cavernosal tissue strips (3×3×7 mm), obtained as described in Example 2, were immersed in a 8 ml organ chamber containing physiological salt solution, maintained at 37° C. and aerated with 5% CO2/95% air, pH 7.4. Each strip was incrementally stretched to optimal isometric tension, as determined by maximal contractile responses to 1 μM phenylephrine. Relaxant responses were evaluated by adding increasing cumulative concentrations of compounds to the strips contracted with 0.5 μM phenylephrine. Relaxation responses were expressed as a percentage of total relaxation induced by the addition of 0.1 mM papaverine hydrochloride (total loss of tone) at the end of the experiment. In FIGS. 2 and 3, the data are expressed as mean±standard error. Statistical analysis were conducted using a two-factor ANOVA statistical analysis using StatView software for Apple computers.
The tissues were prepared according to Example 4. […]

EC50 [2] [µM] | Compound | cGMP production compared to control ([1]; 1 μM PGE1 alone) | cGMP production compared to control ([1]; 100 μM GS-NO alone)
0.083 ± 0.05 | CCCCC[C@H](O)/C=C/[C@H]1[C@H](O)CC(=O)[C@@H]1CCCCCCC(=O)O [PGE1, 7-(5-((1E)(3S)-3-hydroxyoct-1-enyl)(1R,4R,5R)-4-(hydroxy-2-oxocyclopentyl)heptanoic acid)] | did not produce a significant amount of cGMP | –
2.56 ± 1.3 | N[C@@H](CCC(=O)N[C@@H](CSN=O)C(=O)NCC(=O)O)C(=O)O [GS-NO, N-(N-L-γ-glutamyl-S-Nitroso-L-cysteinyl)glycine] | – | increased amounts of cGMP
